In ChEMBL document CHEMBL1201862, “PubChem BioAssay data set” (2004):
Active and inactive are the calls of the source.

What was measured:
[1] = molecular target: T1, Kappa-type opioid receptor (Homo sapiens, UniProt P41145); assay: SAR analysis of small molecule antagonists of the kappa opioid receptor via a luminescent beta-arrestin assay - Set 4. [Related pubchem assays (depositor defined):AID1777, AID1778, AID1785, AID1786, AID1966, AID2133, AID2136, AID2285]; format: functional
[2] = molecular target: T1, Kappa-type opioid receptor; assay: SAR analysis of small molecule antagonists of the kappa opioid receptor via a luminescent beta-arrestin assay - Set 5. [Related pubchem assays (depositor defined):AID1778, AID1785]; format: functional
[3] = molecular target: Nucleotide-binding oligomerization domain-containing protein 2 (Homo sapiens, UniProt Q9HC29); assay: NOD2 signaling inhibitors, analog potency, SAR follow-up, cell-based, set 3 (AID 2799); format: functional
[4] = system: HEK293; assay: SAR analysis of compounds that are cytotoxic to HEK293 - Set 3. [Related pubchem assays (depositor defined):AID1575, AID1578, AID1848, AID1849, AID2001, AID2333, AID2334, AID2335, AID2337, AID2469]; format: functional, cell-based; conditions: Homo sapiens
[5] = molecular target: Nucleotide-binding oligomerization domain-containing protein 1 (Homo sapiens, UniProt Q9Y239); assay: SAR analysis of compounds that inhibit NOD1 - Set 3. [Related pubchem assays (depositor defined):AID1566, AID1575, AID1578, AID1849, AID1852, AID2333, AID2335, AID2466]; format: functional
[6] = molecular target: Tumor necrosis factor (Homo sapiens, UniProt P01375); assay: TNFa-triggered NF-kB activation inhibitors, SAR follow-up, cell-based, set 3 (AID 2801); format: functional
[7] = molecular target: Signal transducer and activator of transcription 1-alpha/beta (Homo sapiens, UniProt P42224); assay: STAT3 inhibitors, late-stage profile, late-stage follow-up, cell-based, STAT1 panel, qPCR, cytotoxicity, panel member STAT1 Inhibition (AID 2078)
[8] = molecular target: Signal transducer and activator of transcription 3 (Homo sapiens, UniProt P40763); assay: STAT3 inhibitors, late-stage profile, late-stage follow-up, cell-based, STAT1 panel, qPCR, cytotoxicity, panel member STAT3 Inhibition (AID 2078)
[9] = molecular target: Likely tRNA 2'-phosphotransferase (Candida albicans (strain SC5314 / ATCC MYA-2876) (Yeast), UniProt Q5A7N4); assay: TPT1 tRNA phosphotransferase inhibitors, dose response, biochemical, fluorescence polarization (AID 2160)
[10] = molecular target: Eukaryotic translation initiation factor 4E (Mus musculus, UniProt P63073); assay: eIF4E–eIF4G protein interaction inhibitors, dose response, biochemical, TR-FRET (AID 855); format: functional;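 further: potency for disrupting eIF4E binding to eIF4GI seen as loss of FRET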
[11] = molecular target: T2, Dual specificity protein phosphatase 6 (Rattus norvegicus, UniProt Q64346); assay: MKP-3 phosphatase inhibitors, primary screen, biochemical, rat enzyme, in vitro (AID 425)
T2 sequence (Q64346 whole entry): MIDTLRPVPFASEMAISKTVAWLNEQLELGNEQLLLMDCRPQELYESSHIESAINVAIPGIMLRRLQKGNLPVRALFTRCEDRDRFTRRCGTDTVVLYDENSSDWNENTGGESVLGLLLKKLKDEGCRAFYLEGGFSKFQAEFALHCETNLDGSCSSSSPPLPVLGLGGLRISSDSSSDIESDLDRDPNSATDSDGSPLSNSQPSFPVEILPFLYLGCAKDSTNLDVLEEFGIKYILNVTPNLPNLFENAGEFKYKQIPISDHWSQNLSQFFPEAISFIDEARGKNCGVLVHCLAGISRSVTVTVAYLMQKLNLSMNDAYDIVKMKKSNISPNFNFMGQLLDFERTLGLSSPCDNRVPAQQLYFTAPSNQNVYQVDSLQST

[12] = molecular target: Cytochrome P450 2C9 (Homo sapiens, UniProt P11712); conditions: Potency
[13] = molecular target: T3, Dual specificity protein phosphatase 3 (Homo sapiens, UniProt P51452); assay: VHR1 phosphatase inhibitors, primary screen, biochemical, absorbance, uHTS (AID 1654)
[14] = molecular target: T4, Heat shock 70 kDa protein 1A (Homo sapiens, UniProt P0DMV8); assay: Hsp70 inhibitors, biochemical, TR-FRET (AID 786)
[15] = molecular target: Induced myeloid leukemia cell differentiation protein Mcl-1 (Homo sapiens, UniProt Q07820); format: functional
[16] = molecular target: T3, Dual specificity protein phosphatase 3; assay: VHR1 phosphatase inhibitors, biochemical (AID 1878)
[17] = molecular target: Mothers against decapentaplegic homolog 3 (Homo sapiens, UniProt P84022); assay: SMAD3 transcription factor inhibitors, dose response (AID 715); format: functional
[18] = molecular target: T4, Heat shock 70 kDa protein 1A; assay: Hsp70 inhibitors, probe displacement, primary screen, biochemical, fluorescence polarization (AID 583)
[19] = molecular target: T4, Heat shock 70 kDa protein 1A; assay: Hsp70 inhibitors, SAR follow-up, biochemical, fluorescence polarization (AID 1072)
[20] = molecular target: Guanyl-specific ribonuclease T1 (Aspergillus oryzae (strain ATCC 42149 / RIB 40), UniProt P00651); assay: RNase T1 inhibitors, dose response, counter-screen for TPT1 inhibitor project, biochemical, fluorescence polarization, 1536-well (AID 2167)
[21] = molecular target: T5, Leucine aminopeptidase (Plasmodium falciparum 3D7, UniProt Q8IL11); assay: P. falciparum M17LAP inhibitors, primary screen, biochemical, fluorogenic H-Leu-NHMec substrate, 1536-well (AID 1619); format: functional
T5 sequence (Q8IL11 whole entry): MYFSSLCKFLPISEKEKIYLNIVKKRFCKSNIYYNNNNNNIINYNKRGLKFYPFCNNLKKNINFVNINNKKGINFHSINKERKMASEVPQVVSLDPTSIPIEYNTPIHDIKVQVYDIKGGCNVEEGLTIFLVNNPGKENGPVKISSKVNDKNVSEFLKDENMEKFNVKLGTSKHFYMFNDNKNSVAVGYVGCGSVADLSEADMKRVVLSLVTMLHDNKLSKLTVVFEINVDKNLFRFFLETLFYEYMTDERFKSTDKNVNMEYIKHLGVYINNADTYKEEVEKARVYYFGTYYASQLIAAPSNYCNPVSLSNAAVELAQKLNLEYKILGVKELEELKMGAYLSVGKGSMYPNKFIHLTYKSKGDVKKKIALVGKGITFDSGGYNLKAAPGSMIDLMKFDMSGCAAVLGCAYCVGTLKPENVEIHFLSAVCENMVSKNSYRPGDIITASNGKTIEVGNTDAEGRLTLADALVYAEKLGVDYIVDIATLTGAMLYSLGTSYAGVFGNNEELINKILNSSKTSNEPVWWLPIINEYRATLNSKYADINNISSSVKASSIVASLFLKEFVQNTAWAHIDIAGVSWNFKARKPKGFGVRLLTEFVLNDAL

T4 sequence (P0DMV8 whole entry): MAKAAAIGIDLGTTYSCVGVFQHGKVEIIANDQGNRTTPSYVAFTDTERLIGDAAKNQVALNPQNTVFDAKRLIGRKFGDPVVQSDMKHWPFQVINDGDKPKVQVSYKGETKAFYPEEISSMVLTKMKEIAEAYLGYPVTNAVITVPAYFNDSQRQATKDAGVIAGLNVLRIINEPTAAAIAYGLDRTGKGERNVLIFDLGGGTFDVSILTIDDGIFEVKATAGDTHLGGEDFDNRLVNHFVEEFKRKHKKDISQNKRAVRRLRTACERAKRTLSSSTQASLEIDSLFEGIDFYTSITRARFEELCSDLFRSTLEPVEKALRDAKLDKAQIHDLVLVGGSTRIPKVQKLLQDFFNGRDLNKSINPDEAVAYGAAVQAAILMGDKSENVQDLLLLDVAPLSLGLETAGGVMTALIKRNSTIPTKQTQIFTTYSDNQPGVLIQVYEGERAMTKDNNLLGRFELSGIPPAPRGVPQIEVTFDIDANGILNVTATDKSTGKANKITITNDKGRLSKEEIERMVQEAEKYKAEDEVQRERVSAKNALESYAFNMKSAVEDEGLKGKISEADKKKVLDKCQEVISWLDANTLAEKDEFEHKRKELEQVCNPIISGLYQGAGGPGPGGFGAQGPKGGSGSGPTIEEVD
T3 sequence (P51452 whole entry): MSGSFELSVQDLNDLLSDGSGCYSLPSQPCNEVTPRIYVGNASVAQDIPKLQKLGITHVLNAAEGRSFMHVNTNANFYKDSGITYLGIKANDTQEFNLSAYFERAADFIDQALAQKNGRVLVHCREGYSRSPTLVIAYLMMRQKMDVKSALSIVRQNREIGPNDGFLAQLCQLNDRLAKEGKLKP
T1 sequence (P41145 whole entry): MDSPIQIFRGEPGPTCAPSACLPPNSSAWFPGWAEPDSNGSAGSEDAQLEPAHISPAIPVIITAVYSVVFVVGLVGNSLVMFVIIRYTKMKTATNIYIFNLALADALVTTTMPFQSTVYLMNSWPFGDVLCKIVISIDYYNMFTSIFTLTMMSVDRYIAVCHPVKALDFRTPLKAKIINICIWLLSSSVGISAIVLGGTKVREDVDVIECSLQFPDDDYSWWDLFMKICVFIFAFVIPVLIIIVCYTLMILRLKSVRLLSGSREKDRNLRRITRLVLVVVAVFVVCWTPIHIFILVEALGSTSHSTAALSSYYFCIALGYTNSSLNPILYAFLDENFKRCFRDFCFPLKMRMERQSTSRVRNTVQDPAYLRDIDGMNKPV
Chain of Eukaryotic translation initiation factor 4E (P63073 whole entry): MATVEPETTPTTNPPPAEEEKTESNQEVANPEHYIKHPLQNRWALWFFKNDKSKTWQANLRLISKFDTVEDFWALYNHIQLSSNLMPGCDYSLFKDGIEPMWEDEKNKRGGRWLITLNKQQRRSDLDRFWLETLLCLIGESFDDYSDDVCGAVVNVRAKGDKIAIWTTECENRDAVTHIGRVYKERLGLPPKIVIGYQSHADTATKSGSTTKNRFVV
Chain of Nucleotide-binding oligomerization domain-containing protein 1 (Q9Y239 whole entry, the tested form may be a part): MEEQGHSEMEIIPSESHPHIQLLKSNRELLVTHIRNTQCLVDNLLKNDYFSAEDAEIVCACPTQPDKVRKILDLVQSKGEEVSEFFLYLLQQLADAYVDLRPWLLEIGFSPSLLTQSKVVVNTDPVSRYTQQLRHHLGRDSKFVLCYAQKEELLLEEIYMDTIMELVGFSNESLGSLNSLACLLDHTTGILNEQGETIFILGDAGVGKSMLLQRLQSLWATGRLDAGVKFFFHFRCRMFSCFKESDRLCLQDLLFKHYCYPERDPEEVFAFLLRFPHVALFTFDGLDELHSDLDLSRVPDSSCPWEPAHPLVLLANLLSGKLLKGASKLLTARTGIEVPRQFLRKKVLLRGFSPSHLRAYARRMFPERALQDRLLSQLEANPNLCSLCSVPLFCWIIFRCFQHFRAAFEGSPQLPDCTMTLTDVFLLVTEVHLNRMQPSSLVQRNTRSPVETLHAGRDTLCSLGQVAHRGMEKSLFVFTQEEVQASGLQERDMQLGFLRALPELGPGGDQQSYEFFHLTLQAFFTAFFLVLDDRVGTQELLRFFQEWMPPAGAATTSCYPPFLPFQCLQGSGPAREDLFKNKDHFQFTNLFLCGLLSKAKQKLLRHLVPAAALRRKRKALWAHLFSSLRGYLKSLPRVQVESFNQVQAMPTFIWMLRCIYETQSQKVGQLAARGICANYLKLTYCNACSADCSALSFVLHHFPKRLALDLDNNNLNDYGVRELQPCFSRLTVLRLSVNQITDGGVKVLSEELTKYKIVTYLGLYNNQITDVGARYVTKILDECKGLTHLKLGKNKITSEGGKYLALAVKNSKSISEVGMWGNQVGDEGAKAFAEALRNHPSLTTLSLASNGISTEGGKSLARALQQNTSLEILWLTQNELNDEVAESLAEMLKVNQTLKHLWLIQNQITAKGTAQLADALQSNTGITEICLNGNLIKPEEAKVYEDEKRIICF
Chain of Mothers against decapentaplegic homolog 3 (P84022 whole entry): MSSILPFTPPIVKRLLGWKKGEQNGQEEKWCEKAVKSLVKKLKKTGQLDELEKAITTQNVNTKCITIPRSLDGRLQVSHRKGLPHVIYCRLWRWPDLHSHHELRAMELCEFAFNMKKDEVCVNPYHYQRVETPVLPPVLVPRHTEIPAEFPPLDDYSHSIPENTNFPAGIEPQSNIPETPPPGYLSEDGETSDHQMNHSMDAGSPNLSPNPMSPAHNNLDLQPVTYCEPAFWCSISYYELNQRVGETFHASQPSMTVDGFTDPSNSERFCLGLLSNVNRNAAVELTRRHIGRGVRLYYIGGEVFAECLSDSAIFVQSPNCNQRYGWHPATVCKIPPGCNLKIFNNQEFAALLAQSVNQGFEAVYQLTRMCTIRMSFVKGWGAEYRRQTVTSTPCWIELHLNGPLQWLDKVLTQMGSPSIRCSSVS
Chain of Signal transducer and activator of transcription 1-alpha/beta (P42224 whole entry): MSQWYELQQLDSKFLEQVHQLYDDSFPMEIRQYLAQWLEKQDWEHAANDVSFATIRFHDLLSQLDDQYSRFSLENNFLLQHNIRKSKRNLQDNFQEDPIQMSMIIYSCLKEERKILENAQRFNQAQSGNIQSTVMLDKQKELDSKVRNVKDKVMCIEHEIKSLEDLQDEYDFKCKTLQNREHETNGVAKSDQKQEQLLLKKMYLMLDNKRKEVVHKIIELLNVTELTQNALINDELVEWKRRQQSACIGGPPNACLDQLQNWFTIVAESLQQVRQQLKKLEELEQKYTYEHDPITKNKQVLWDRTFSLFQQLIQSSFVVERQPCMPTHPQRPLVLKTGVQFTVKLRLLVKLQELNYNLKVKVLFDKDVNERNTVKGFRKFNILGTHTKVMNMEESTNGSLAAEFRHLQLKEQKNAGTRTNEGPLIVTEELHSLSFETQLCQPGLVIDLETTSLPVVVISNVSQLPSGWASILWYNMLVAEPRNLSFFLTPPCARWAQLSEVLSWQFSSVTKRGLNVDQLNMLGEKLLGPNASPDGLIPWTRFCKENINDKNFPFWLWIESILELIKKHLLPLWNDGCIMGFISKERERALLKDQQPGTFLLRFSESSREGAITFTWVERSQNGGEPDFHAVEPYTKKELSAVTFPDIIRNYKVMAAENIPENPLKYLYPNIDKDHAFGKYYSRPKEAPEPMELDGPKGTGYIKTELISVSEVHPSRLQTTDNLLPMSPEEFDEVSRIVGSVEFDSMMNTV
Chain of Cytochrome P450 2C9 (P11712 whole entry): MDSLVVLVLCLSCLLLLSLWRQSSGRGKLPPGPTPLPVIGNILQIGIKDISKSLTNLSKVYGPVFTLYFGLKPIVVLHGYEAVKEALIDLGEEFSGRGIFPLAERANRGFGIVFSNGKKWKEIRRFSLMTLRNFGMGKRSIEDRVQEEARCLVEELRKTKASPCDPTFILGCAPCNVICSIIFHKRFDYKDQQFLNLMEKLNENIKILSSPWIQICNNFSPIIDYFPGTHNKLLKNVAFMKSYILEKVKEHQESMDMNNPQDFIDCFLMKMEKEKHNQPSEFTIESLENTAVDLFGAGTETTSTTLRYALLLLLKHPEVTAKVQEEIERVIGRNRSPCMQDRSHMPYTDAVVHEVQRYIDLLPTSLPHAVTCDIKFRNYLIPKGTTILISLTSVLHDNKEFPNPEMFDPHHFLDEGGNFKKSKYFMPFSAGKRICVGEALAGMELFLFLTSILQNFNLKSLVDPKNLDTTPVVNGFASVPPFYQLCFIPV
Chain of Induced myeloid leukemia cell differentiation protein Mcl-1 (Q07820 whole entry): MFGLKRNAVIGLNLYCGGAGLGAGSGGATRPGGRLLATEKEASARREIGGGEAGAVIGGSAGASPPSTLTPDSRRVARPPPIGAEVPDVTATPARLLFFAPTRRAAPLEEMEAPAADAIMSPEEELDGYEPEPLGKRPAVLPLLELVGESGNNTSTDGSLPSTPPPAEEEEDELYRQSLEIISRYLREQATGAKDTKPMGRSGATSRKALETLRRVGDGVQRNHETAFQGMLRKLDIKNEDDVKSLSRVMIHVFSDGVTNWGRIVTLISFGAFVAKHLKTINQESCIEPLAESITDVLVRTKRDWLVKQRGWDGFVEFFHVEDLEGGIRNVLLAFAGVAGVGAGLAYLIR
Chain of Likely tRNA 2'-phosphotransferase (Q5A7N4 whole entry): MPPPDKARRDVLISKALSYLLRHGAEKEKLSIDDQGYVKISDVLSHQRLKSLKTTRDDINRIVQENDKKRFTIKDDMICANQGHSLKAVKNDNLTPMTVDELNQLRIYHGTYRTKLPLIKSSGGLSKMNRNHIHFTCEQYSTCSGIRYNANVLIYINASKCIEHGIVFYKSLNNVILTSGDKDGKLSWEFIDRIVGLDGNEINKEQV
Chain of Guanyl-specific ribonuclease T1 (P00651 whole entry): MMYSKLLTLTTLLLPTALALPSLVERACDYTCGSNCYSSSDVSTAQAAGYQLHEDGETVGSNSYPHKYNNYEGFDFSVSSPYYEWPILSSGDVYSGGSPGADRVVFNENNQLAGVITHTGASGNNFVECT

## CC(C)N(CCNC(=O)c1ccc(CNS(=O)(=O)c2ccc(C#N)cc2)cc1)Cc1ccccc1
[1]
  IC50: 3.54 µM (active)
[2]
  IC50: 1.36 µM (active)

## CC(C)c1ccc(S(=O)(=O)n2c(N)nc3ccccc32)cc1
[3]
  IC50: > 20 µM (inactive)
[4]
  IC50: > 20 µM (inactive)
[5]
  IC50: 495 nM (active)
[6]
  IC50: > 20 µM (inactive)

## c1ccc(CC2CCN(c3ncnc4sc(-c5ccccc5)cc34)CC2)cc1
[7]
  IC50: > 55.7 µM (inactive)
[8]
  IC50: > 55.7 µM (inactive)

## O=c1oc2c(O)c(O)cc3c(=O)oc4c(O)c(O)cc1c4c23 [ELLAGIC ACID]
[9]
  IC50: 541 nM (active)
[10]
  IC50: 47.7 µM (inactive)
[11]
  IC50: 39.5 µM (active)
[12]
  AC50: 39.8 µM (inconclusive)
[13]
  IC50: < 980 nM (inactive)
[14]
  IC50: > 100 µM (not active)
[15]
  IC50: > 54 µM (active)
[16]
  IC50: < 1.23 µM (inactive)
[17]
  IC50: 142 nM (active)
[18]
  IC50: 760 nM (active)
[19]
  IC50: > 100 µM (not active)
[20]
  IC50: > 55.7 µM (not active)
[21]
  IC50: 138 µM (active)
